Measurements: ChEMBL document CHEMBL1201862, “PubChem BioAssay data set” (2004)
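Growth conditions: 96-well plates. Treatment: test compound, 48 hours, 5 concentrations. Analysis: linear interpolation between bracketing concentrations; unreached endpoints set to highest concentration. Abbreviation: GI50, concentration required for 50% inhibition of growth.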 Calls of active or inactive are those of the source. Cut-off read from the data, not from the text of the source: active = GI50 up to about 1.1 µM and inactive = higher.

Tests used:
Experiment in all cases: NCI tumour cell line growth inhibition, 48 h
SW-620 = tested on: SW-620
HCT-15 = tested on: HCT-15
SF-268 = tested on: SF-268
A498 = tested on: A498
RXF 393 = tested on: RXF 393
M14 = tested on: M14
SK-MEL-5 = tested on: SK-MEL-5
UO-31 = tested on: UO-31
HOP-92 = tested on: HOP-92
OVCAR-3 = tested on: OVCAR-3
MDA-N = tested on: MDA-N
IGROV-1 = tested on: IGROV-1
MDA-MB-435 = tested on: MDA-MB-435
Hs-578T = tested on: Hs-578T
HT-29 = tested on: HT-29
NCI-H23 = tested on: NCI-H23
K562 = tested on: K562
T47D = tested on: T47D
SF-539 = tested on: SF-539
SF-295 = tested on: SF-295
A549 = tested on: A549
UACC-257 = tested on: UACC-257
SNB-19 = tested on: SNB-19
Malme-3M = tested on: Malme-3M
HOP-62 = tested on: HOP-62
U-251 = tested on: U-251
OVCAR-4 = tested on: OVCAR-4
HCT-116 = tested on: HCT-116
SNB-75 = tested on: SNB-75
SN12C = tested on: SN12C
HCC 2998 = tested on: HCC 2998
EKVX = tested on: EKVX
PC-3 = tested on: PC-3
NCI-H460 = tested on: NCI-H460
NCI-H226 = tested on: NCI-H226
OVCAR-8 = tested on: OVCAR-8
DU-145 = tested on: DU-145
NCI-H522 = tested on: NCI-H522
SR = tested on: SR
MCF7 = tested on: MCF7
UACC-62 = tested on: UACC-62
SK-OV-3 = tested on: SK-OV-3
LOX IMVI = tested on: LOX IMVI
NCI/ADR-RES = tested on: NCI/ADR-RES
SK-MEL-28 = tested on: SK-MEL-28
786-0 = tested on: 786-0
CCRF-CEM = tested on: CCRF-CEM
HL-60 = tested on: HL-60
MOLT-4 = tested on: MOLT-4
OVCAR-5 = tested on: OVCAR-5
COLO 205 = tested on: COLO 205
RPMI-8226 = tested on: RPMI-8226
MDA-MB-231 = tested on: MDA-MB-231
TK-10 = tested on: TK-10
ACHN = tested on: ACHN
KM12 = tested on: KM12
CAKI-1 = tested on: CAKI-1

Cc1cccc2c1C(=O)C1(Cc3ccccc3C1=O)C2 (configuration not stated)
GI50 (SW-620): > 100 µM (inactive) | GI50 (HCT-15): > 100 µM | GI50 (SF-268): > 100 µM (inactive) | GI50 (A498): 47.1 µM (inactive) | GI50 (RXF 393): > 100 µM (inactive) | GI50 (M14): > 100 µM (inactive) | GI50 (SK-MEL-5): > 100 µM (inactive) | GI50 (UO-31): 28.9 µM (inactive) | GI50 (HOP-92): > 100 µM (inactive) | GI50 (OVCAR-3): > 100 µM (inactive) | GI50 (MDA-N): > 100 µM (inactive) | GI50 (IGROV-1): > 100 µM (inactive) | GI50 (MDA-MB-435): > 100 µM (inactive) | GI50 (Hs-578T): 48.3 µM (inactive) | GI50 (HT-29): > 100 µM (inactive) | GI50 (NCI-H23): > 100 µM (inactive) | GI50 (K562): > 100 µM (inactive) | GI50 (T47D): 52.8 µM (inactive) | GI50 (SF-539): > 100 µM (inactive) | GI50 (SF-295): > 100 µM (inactive) | GI50 (A549): > 100 µM (inactive) | GI50 (UACC-257): > 100 µM (inactive) | GI50 (SNB-19): > 100 µM (inactive) | GI50 (Malme-3M): > 100 µM (inactive) | GI50 (HOP-62): > 100 µM (inactive) | GI50 (U-251): > 100 µM (inactive) | GI50 (OVCAR-4): > 100 µM (inactive) | GI50 (HCT-116): > 100 µM (inactive) | GI50 (SNB-75): 46.5 µM (inactive) | GI50 (SN12C): > 100 µM (inactive) | GI50 (HCC 2998): > 100 µM (inactive) | GI50 (EKVX): > 100 µM (inactive) | GI50 (PC-3): > 100 µM (inactive) | GI50 (NCI-H460): 70.3 µM (inactive) | GI50 (NCI-H226): > 100 µM (inactive) | GI50 (OVCAR-8): > 100 µM (inactive) | GI50 (DU-145): > 100 µM (inactive) | GI50 (NCI-H522): > 100 µM (inactive) | GI50 (SR): > 100 µM (inactive) | GI50 (MCF7): > 100 µM (inactive) | GI50 (UACC-62): 84.7 µM (inactive) | GI50 (SK-OV-3): > 100 µM (inactive) | GI50 (LOX IMVI): > 100 µM (inactive) | GI50 (NCI/ADR-RES): 87.1 µM (inactive) | GI50 (SK-MEL-28): > 100 µM (inactive) | GI50 (786-0): > 100 µM (inactive) | GI50 (CCRF-CEM): > 100 µM (inactive) | GI50 (HL-60): > 100 µM (inactive) | GI50 (MOLT-4): 91.2 µM (inactive) | GI50 (OVCAR-5): > 100 µM (inactive) | GI50 (COLO 205): > 100 µM (inactive) | GI50 (RPMI-8226): 57.9 µM (inactive) | GI50 (MDA-MB-231): > 100 µM (inactive) | GI50 (TK-10): > 100 µM (inactive) | GI50 (ACHN): > 100 µM (inactive)

C=CCO[C@]1(CC=C)C(=O)C(=O)OC1C1COC(C)(C)O1 (some centres not stated)
GI50 (SW-620): 18.6 µM (inactive) | GI50 (HCT-15): 21.1 µM | GI50 (SF-268): 26.6 µM (inactive) | GI50 (A498): > 100 µM (inactive) | GI50 (RXF 393): 19.8 µM (inactive) | GI50 (SK-MEL-5): 36.1 µM (inactive) | GI50 (UO-31): 84.5 µM (inactive) | GI50 (HOP-92): 22.3 µM (inactive) | GI50 (OVCAR-3): 45.7 µM (inactive) | GI50 (MDA-N): 36 µM (inactive) | GI50 (IGROV-1): > 100 µM (inactive) | GI50 (MDA-MB-435): 36 µM (inactive) | GI50 (Hs-578T): 74 µM (inactive) | GI50 (HT-29): 19.8 µM (inactive) | GI50 (NCI-H23): 53.2 µM (inactive) | GI50 (K562): 27.4 µM (inactive) | GI50 (T47D): 34.8 µM (inactive) | GI50 (SF-539): > 100 µM (inactive) | GI50 (SF-295): > 100 µM (inactive) | GI50 (A549): > 100 µM (inactive) | GI50 (UACC-257): 30 µM (inactive) | GI50 (SNB-19): > 100 µM (inactive) | GI50 (Malme-3M): 17.3 µM (inactive) | GI50 (HOP-62): > 100 µM (inactive) | GI50 (KM12): 18.8 µM (inactive) | GI50 (U-251): 72.3 µM (inactive) | GI50 (HCT-116): 32 µM (inactive) | GI50 (SNB-75): 27.7 µM (inactive) | GI50 (SN12C): 34.4 µM (inactive) | GI50 (HCC 2998): > 100 µM (inactive) | GI50 (EKVX): > 100 µM (inactive) | GI50 (PC-3): 44.6 µM (inactive) | GI50 (NCI-H460): 65.2 µM (inactive) | GI50 (NCI-H226): > 100 µM (inactive) | GI50 (OVCAR-8): 29.2 µM (inactive) | GI50 (DU-145): > 100 µM (inactive) | GI50 (NCI-H522): 21.2 µM (inactive) | GI50 (SR): 22.9 µM (inactive) | GI50 (MCF7): 19.1 µM (inactive) | GI50 (LOX IMVI): 16.9 µM (inactive) | GI50 (NCI/ADR-RES): 37.4 µM (inactive) | GI50 (SK-MEL-28): > 10 µM (inactive) | GI50 (786-0): 35.1 µM (inactive) | GI50 (CCRF-CEM): 29.4 µM (inactive) | GI50 (HL-60): > 10 µM (inactive) | GI50 (MOLT-4): 31.8 µM (inactive) | GI50 (OVCAR-5): > 100 µM (inactive) | GI50 (CAKI-1): 27.1 µM (inactive) | GI50 (COLO 205): 20.5 µM (inactive) | GI50 (RPMI-8226): 25.9 µM (inactive) | GI50 (MDA-MB-231): 41.6 µM (inactive) | GI50 (ACHN): 16.6 µM (inactive)
